# In patent US20230233584A1, “EXTENDED RELEASE 5-HT RECEPTOR AGONISTS FOR NEUROLOGICAL CONDITIONS” (Diamond Therapeutics Inc., priority 2020, published 2023):
# Test system: Long Evans rats
# Experiment: Progressive ratio (PR) test, Study A
# Type: in vivo
# Settings: for food responding: low responder subgroup
# Description: General: Experiments were conducted to test psilocybin doses in the range of 0.01-0.2 mg/kg psilocybin administered S.C. across progressive ratio (PR) and 5-choice serial reaction time task (5CSRTT) to examine the effect of psilocybin on endophenotypes of motivation and attention. In each study, a population of out-bred Long Evans rats was first tested as a group for response to the PR and 5CSRTT. Each group was then divided into subgroups by tertiles according to performance, and then exposed to various dose levels immediately prior to re-testing at various psilocybin dose levels.
# The PR test is used to answer how willing the test subject is to work for food (i.e. test of motivation). A single 45 mg food pellet (i.e. reinforcer) is made available to the test animal based on lever press response. To obtain each successive pellet, the animal must make increasingly more lever presses. Typically, a progression of 2, 4, 6, 9, 12, 15, 20, 25, 32, 40, 50, 62, 77, 95, 118, etc. is used, derived from the equation:
# ratio=[5×e^(0.2×reinforcer #)−5]
# At some point, the animal gives up as the motor demands to obtain a single pellet are not deemed worthwhile (i.e. animal reaches “break point” defined as animal's failure to earn a food pellet in 20 minutes).
# Study A: Psilocybin was administered to rats S.C. at doses of 0.05, 0.1 and 0.2 mg/kg.
# Rats were then sub-grouped into tertiles based on the number of lever presses for food at baseline, so that within the test population of 36 animals, 12 animals were identified as low responders, characterized by low motivation and potentially corresponding to low motivation endophenotype representative of clinical depression. Twelve animals were identified as high responders. There was a statistically significant difference between the high and low responders. […] This represents a motivational enhancing effect of psilocybin at the 0.05 mg/kg dose in the cohort corresponding to a low motivation endophenotype representative of clinical depression.
structure (smiles),measurement,setting,value
"CN(C)CCc1c[nH]c2cccc(OP(=O)(O)O)c12 [psilocybin, 4-phosphoryloxy-N,N-dimethyltryptamine]",food responding,0.05 mg/kg,increase in food responding
same,number of lever presses and break point,"0.05 mg/kg, low responders, P<0.05 vs. vehicle",significant increase
same,session duration,"0.05 mg/kg, low responders, P=0.07 vs. vehicle",10.8 ± 1.9 min
same,food responding,0.1 mg/kg,did not produce an increase in food responding
same,number of lever presses or break points,"0.05, 0.1 and 0.2 mg/kg S.C., entire study population of 36 rats",None of these doses were observed to cause obvious changes
same,response in PR test,"0.05-0.2 mg/kg S.C., high responder subgroup",no effect on response
